Results from ChEMBL document CHEMBL4622969, “Design and biological evaluation of novel HIV-1 protease inhibitors with isopropanol as P1' ligand to enhance binding with S1' subsite” (Bioorg Med Chem, 2020).

Columns and labels:
[1] = molecular target: Human immunodeficiency virus type 1 protease (Human immunodeficiency virus 1, UniProt Q72874); test: Inhibition of HIV-1 protease expressed in Escherichia coli using Arg-Glu(EDANS)-Ser-Gln-Asn-Tyr-Pro-Ile-Val-Gln-Lys(DABCYL)-Arg as substrate preincubated for 20 to 30 mins followed by substrate addition by FRET based assay
[2] = test system: Human immunodeficiency virus 1; test: Antiviral activity against VSV-G pseudotyped wild type HIV1 NL4-3 infected in human TZM-b1 cells at 5 uM infected with supernatants from virus-infected human SUPT1 cells after 48 hrs by luciferase assay relative to control; format: functional
[3] = test system: Human immunodeficiency virus 1; test: Antiviral activity against VSV-G pseudotyped darunavir-resistant HIV1 NL4-3 harboring V32I, L33F,I54M and I84V mutant infected in human SUPT1 cells at 5 uM infected with supernatants from virus-infected human 293T cells after 48 hrs by luciferase assay relative to control; format: functional
[4] = test system: Human immunodeficiency virus 1; test: Resistance index, ratio of antiviral activity against VSV-G pseudotyped wild type HIV1 NL4-3 infected in human TZM-b1 cells infected with supernatants from virus-infected human SUPT1 cells to antiviral activity against darunavir-resistant HIV1 NL4-3 infected in human SUPT1 cells infected with supernatants from virus-infected human 293T cells at 5 uM by luciferase assay; format: functional
[5] = test system: Human immunodeficiency virus 1; test: Antiviral activity against VSV-G pseudotyped wild type HIV1 NL4-3 infected in human TZM-b1 cells at 100 nM infected with supernatants from virus-infected human SUPT1 cells after 48 hrs by luciferase assay relative to control; format: functional
[6] = test system: Human immunodeficiency virus 1; test: Antiviral activity against VSV-G pseudotyped darunavir-resistant HIV1 NL4-3 V32I, L33F,I54M and I84V mutant infected in human SUPT1 cells at 100 nM infected with supernatants from virus-infected human 293T cells after 48 hrs by luciferase assay relative to control; format: functional

Row | SMILES | IC50 [1] [µM] | also measured
1 | COc1cc(O)c(C(=O)N[C@@H](Cc2ccccc2)[C@H](O)CN(C[C@@H](C)O)S(=O)(=O)c2ccc([N+](=O)[O-])cc2)cc1OC | 0.102 | 
2 | C[C@@H](O)CN(C[C@@H](O)[C@H](Cc1ccccc1)NC(=O)c1cc(O)cc(O)c1)S(=O)(=O)c1ccc([N+](=O)[O-])cc1 | 0.00483 | inhibition (INH) [2]: 58%; inhibition (INH) [3]: 42%; Selectivity Index [4]: 1.38
3 | COc1cc(C(=O)N[C@@H](Cc2ccccc2)[C@H](O)CN(C[C@H](C)O)S(=O)(=O)c2ccc(C(F)(F)F)cc2)cc(OC)c1O | 0.014 | 
4 | C[C@H](O)CN(C[C@@H](O)[C@H](Cc1ccccc1)NC(=O)c1ccccc1O)S(=O)(=O)c1ccc(C(F)(F)F)cc1 | 0.257 | 
5 | C[C@@H](O)CN(C[C@@H](O)[C@H](Cc1ccccc1)NC(=O)c1ccc(O)cc1O)S(=O)(=O)c1ccc([N+](=O)[O-])cc1 | 0.0134 | 
6 | C[C@@H](O)CN(C[C@@H](O)[C@H](Cc1ccccc1)NC(=O)c1ccccc1O)S(=O)(=O)c1ccc([N+](=O)[O-])cc1 | 0.009 | 
7 | C[C@@H](O)CN(C[C@@H](O)[C@H](Cc1ccccc1)NC(=O)c1ccc(O)cc1O)S(=O)(=O)c1ccc(C(F)(F)F)cc1 | 0.0123 | 
8 | C[C@@H](O)CN(C[C@@H](O)[C@H](Cc1ccccc1)NC(=O)c1ccccc1O)S(=O)(=O)c1ccc(C(F)(F)F)cc1 | 0.0321 | 
9 | C[C@H](O)CN(C[C@@H](O)[C@H](Cc1ccccc1)NC(=O)c1ccc(O)cc1O)S(=O)(=O)c1ccc([N+](=O)[O-])cc1 | 0.0471 | 
10 | C[C@H](O)CN(C[C@@H](O)[C@H](Cc1ccccc1)NC(=O)c1ccccc1O)S(=O)(=O)c1ccc([N+](=O)[O-])cc1 | 0.0782 | 
11 | C[C@@H](O)CN(C[C@@H](O)[C@H](Cc1ccccc1)NC(=O)c1cc(O)cc(O)c1)S(=O)(=O)c1ccc(C(F)(F)F)cc1 | 0.00233 | inhibition (INH) [2]: 76%; inhibition (INH) [3]: 51%; Selectivity Index [4]: 1.49
12 | COc1cc(C(=O)N[C@@H](Cc2ccccc2)[C@H](O)CN(C[C@H](C)O)S(=O)(=O)c2ccc([N+](=O)[O-])cc2)cc(OC)c1O | 0.0758 | 
13 | C[C@H](O)CN(C[C@@H](O)[C@H](Cc1ccccc1)NC(=O)c1ccc(O)c(O)c1)S(=O)(=O)c1ccc(C(F)(F)F)cc1 | 0.00653 | 
14 | COc1cc(O)c(C(=O)N[C@@H](Cc2ccccc2)[C@H](O)CN(C[C@H](C)O)S(=O)(=O)c2ccc(C(F)(F)F)cc2)cc1OC | 0.284 | 
15 | CC(C)CN(C[C@@H](O)[C@H](Cc1ccccc1)NC(=O)O[C@H]1CO[C@H]2OCC[C@H]21)S(=O)(=O)c1ccc(N)cc1 |  | inhibition (INH) [5]: 95%; inhibition (INH) [6]: 59%
16 | C[C@H](O)CN(C[C@@H](O)[C@H](Cc1ccccc1)NC(=O)c1cc(O)cc(O)c1)S(=O)(=O)c1ccc([N+](=O)[O-])cc1 | 0.0374 | 
17 | COc1cc(C(=O)N[C@@H](Cc2ccccc2)[C@H](O)CN(C[C@@H](C)O)S(=O)(=O)c2ccc(C(F)(F)F)cc2)cc(OC)c1O | 0.0118 | 
18 | COc1ccc(C(=O)N[C@@H](Cc2ccccc2)[C@H](O)CN(C[C@@H](C)O)S(=O)(=O)c2ccc([N+](=O)[O-])cc2)c(O)c1 | 0.625 | 
19 | COc1cc(C(=O)N[C@@H](Cc2ccccc2)[C@H](O)CN(C[C@@H](C)O)S(=O)(=O)c2ccc([N+](=O)[O-])cc2)cc(OC)c1O | 0.0131 | 
20 | COc1ccc(C(=O)N[C@@H](Cc2ccccc2)[C@H](O)CN(C[C@H](C)O)S(=O)(=O)c2ccc([N+](=O)[O-])cc2)c(O)c1 | 0.505 | 
21 | COc1ccc(C(=O)N[C@@H](Cc2ccccc2)[C@H](O)CN(C[C@H](C)O)S(=O)(=O)c2ccc(C(F)(F)F)cc2)c(O)c1 | 0.187 | 
22 | COc1cc(O)c(C(=O)N[C@@H](Cc2ccccc2)[C@H](O)CN(C[C@@H](C)O)S(=O)(=O)c2ccc(C(F)(F)F)cc2)cc1OC | 0.0614 | 
23 | C[C@H](O)CN(C[C@@H](O)[C@H](Cc1ccccc1)NC(=O)c1ccc(O)cc1O)S(=O)(=O)c1ccc(C(F)(F)F)cc1 | 0.0406 | 
24 | COc1ccc(C(=O)N[C@@H](Cc2ccccc2)[C@H](O)CN(C[C@@H](C)O)S(=O)(=O)c2ccc(C(F)(F)F)cc2)c(O)c1 | 0.427 | 
25 | C[C@H](O)CN(C[C@@H](O)[C@H](Cc1ccccc1)NC(=O)c1ccc(O)c(O)c1)S(=O)(=O)c1ccc([N+](=O)[O-])cc1 | 0.00656 | 
26 | C[C@@H](O)CN(C[C@@H](O)[C@H](Cc1ccccc1)NC(=O)c1ccc(O)c(O)c1)S(=O)(=O)c1ccc(C(F)(F)F)cc1 | 0.00164 | inhibition (INH) [2]: 66%; inhibition (INH) [3]: 46%; Selectivity Index [4]: 1.43
27 | COc1cc(O)c(C(=O)N[C@@H](Cc2ccccc2)[C@H](O)CN(C[C@H](C)O)S(=O)(=O)c2ccc([N+](=O)[O-])cc2)cc1OC | 1.31 | 
28 | C[C@H](O)CN(C[C@@H](O)[C@H](Cc1ccccc1)NC(=O)c1cc(O)cc(O)c1)S(=O)(=O)c1ccc(C(F)(F)F)cc1 | 0.0272 | 
29 | C[C@@H](O)CN(C[C@@H](O)[C@H](Cc1ccccc1)NC(=O)c1ccc(O)c(O)c1)S(=O)(=O)c1ccc([N+](=O)[O-])cc1 | 0.0103 | 
